Data from ChEMBL document CHEMBL5346873, “Strategic modification of low-activity natural antimicrobial peptides confers antibacterial potential in vitro and in vivo” (Eur J Med Chem, 2023).
≈ marks a conversion by molar mass, not a printed value.

Key:
Klebsiella pneumoniae [1] = test: Antibacterial activity against NDM Klebsiella pneumoniae incubated for 16 to 20 hrs; format: functional; conditions: time 16-20 hrs
Klebsiella aerogenes [2] = test: Bactericidal activity against Enterobacter aerogenes incubated overnight; format: functional
Aeromonas hydrophila [3] = test: Antibacterial activity against Aeromonas hydrophila incubated for 16 to 20 hrs; format: functional; conditions: time 16-20 hrs
Vibrio anguillarum [4] = test: Antibacterial activity against Listonella anguillarum incubated for 16 to 20 hrs; format: functional; conditions: time 16-20 hrs
Streptococcus agalactiae [5] = test: Antibacterial activity against Streptococcus agalactiae incubated for 16 to 20 hrs; format: functional; conditions: time 16-20 hrs
Klebsiella pneumoniae [6] = test: Bactericidal activity against NDM Klebsiella pneumoniae incubated overnight; format: functional
Vibrio vulnificus [7] = test: Antibacterial activity against Vibrio vulnificus V3 incubated for 16 to 20 hrs; format: functional; conditions: time 16-20 hrs
[8] = tested on: Staphylococcus haemolyticus; test: Antibacterial activity against Staphylococcus haemolyticus incubated for 16 to 20 hrs; format: functional; conditions: time 16-20 hrs
Pseudomonas aeruginosa [9] = test: Bactericidal activity against Pseudomonas aeruginosa incubated overnight; format: functional
Candida tropicalis [10] = test: Fungicidal activity against Candida tropicalis incubated overnight; format: functional
Enterococcus faecium [11] = test: Antibacterial activity against Enterococcus faecium incubated for 16 to 20 hrs; format: functional; conditions: time 16-20 hrs
Enterococcus faecalis [12] = test: Antibacterial activity against Enterococcus faecalis incubated for 16 to 20 hrs; format: functional; conditions: time 16-20 hrs
Streptococcus agalactiae [13] = test: Bactericidal activity against Streptococcus agalactiae incubated overnight; format: functional
Klebsiella oxytoca [14] = test: Antibacterial activity against Klebsiella oxytoca incubated for 16 to 20 hrs; format: functional; conditions: time 16-20 hrs
Nakaseomyces glabratus [15] = test: Antifungal activity against Candida glabrata incubated for 16 to 20 hrs; format: functional; conditions: time 16-20 hrs
Vibrio harveyi [16] = test: Bactericidal activity against Vibrio harveyi incubated overnight; format: functional
Edwardsiella tarda [17] = test: Antibacterial activity against Edwardsiella tarda incubated for 16 to 20 hrs; format: functional; conditions: time 16-20 hrs
Vibrio alginolyticus [18] = test: Bactericidal activity against Vibrio alginolyticus incubated overnight; format: functional
[19] = tested on: Staphylococcus haemolyticus; test: Bactericidal activity against Staphylococcus haemolyticus incubated overnight; format: functional
Klebsiella oxytoca [20] = test: Bactericidal activity against Klebsiella oxytoca incubated overnight; format: functional
Pseudomonas aeruginosa [21] = test: Antibacterial activity against Pseudomonas aeruginosa incubated for 16 to 20 hrs; format: functional; conditions: time 16-20 hrs
Vibrio vulnificus [22] = test: Bactericidal activity against Vibrio vulnificus 204 incubated overnight; format: functional
Streptococcus iniae [23] = test: Antibacterial activity against Streptococcus iniae incubated for 16 to 20 hrs; format: functional; conditions: time 16-20 hrs
Klebsiella aerogenes [24] = test: Antibacterial activity against Enterobacter aerogenes incubated for 16 to 20 hrs; format: functional; conditions: time 16-20 hrs
Vibrio alginolyticus [25] = test: Antibacterial activity against Vibrio alginolyticus incubated for 16 to 20 hrs; format: functional; conditions: time 16-20 hrs
Vibrio anguillarum [26] = test: Bactericidal activity against Listonella anguillarum incubated overnight; format: functional
Aeromonas hydrophila [27] = test: Bactericidal activity against Aeromonas hydrophila incubated overnight; format: functional
Salmonella typhimurium [28] = test: Bactericidal activity against Salmonella typhimurium incubated overnight; format: functional, Salmonella enterica subsp. enterica serovar Typhimurium; conditions: Salmonella enterica
Enterococcus faecium [29] = test: Bactericidal activity against Enterococcus faecium incubated overnight; format: functional
Vibrio harveyi [30] = test: Antibacterial activity against Vibrio harveyi incubated for 16 to 20 hrs; format: functional; conditions: time 16-20 hrs
Vibrio vulnificus [31] = test: Antibacterial activity against Vibrio vulnificus V1 incubated for 16 to 20 hrs; format: functional; conditions: time 16-20 hrs
Vibrio vulnificus [32] = test: Bactericidal activity against Vibrio vulnificus V2 incubated overnight; format: functional
Vibrio vulnificus [33] = test: Bactericidal activity against Vibrio vulnificus V3 incubated overnight; format: functional
Candida tropicalis [34] = test: Antifungal activity against Candida tropicalis incubated for 16 to 20 hrs; format: functional; conditions: time 16-20 hrs
Salmonella enterica [35] = test: Antibacterial activity against Salmonella enterica incubated for 16 to 20 hrs; format: functional; conditions: time 16-20 hrs
Vibrio vulnificus [36] = test: Bactericidal activity against Vibrio vulnificus V1 incubated overnight; format: functional
Streptococcus iniae [37] = test: Bactericidal activity against Streptococcus iniae incubated overnight; format: functional
Escherichia coli [38] = test: Antibacterial activity against Escherichia coli incubated for 16 to 20 hrs; format: functional; conditions: time 16-20 hrs
Salmonella enterica [39] = test: Bactericidal activity against Salmonella enterica incubated overnight; format: functional
Nakaseomyces glabratus [40] = test: Fungicidal activity against Candida glabrata incubated overnight; format: functional
Escherichia coli [41] = test: Bactericidal activity against Escherichia coli incubated overnight; format: functional
Edwardsiella tarda [42] = test: Bactericidal activity against Edwardsiella tarda incubated overnight; format: functional
Vibrio vulnificus [43] = test: Antibacterial activity against Vibrio vulnificus V2 incubated for 16 to 20 hrs; format: functional; conditions: time 16-20 hrs
Salmonella typhimurium [44] = test: Antibacterial activity against Salmonella typhimurium incubated for 16 to 20 hrs; format: functional, Salmonella enterica subsp. enterica serovar Typhimurium; conditions: Salmonella enterica; time 16-20 hrs
Enterococcus faecalis [45] = test: Bactericidal activity against Enterococcus faecalis incubated overnight; format: functional
Vibrio vulnificus [46] = test: Antibacterial activity against Vibrio vulnificus 204 incubated for 16 to 20 hrs; format: functional; conditions: time 16-20 hrs

CC1(C)S[C@@H]2[C@H](NC(=O)[C@H](N)c3ccccc3)C(=O)N2[C@H]1C(=O)O [AMPICILLIN] gave an MIC (Klebsiella pneumoniae [1]) of over 100 µg/mL, an MBC (Klebsiella aerogenes [2]) of 100 µg/mL (≈ 286 µM) and an MIC (Aeromonas hydrophila [3]) of over 100 µg/mL. The MIC (Vibrio anguillarum [4]) was over 100 µg/mL, the MIC (Streptococcus agalactiae [5]) was under 1.56 µg/mL and the MBC (Klebsiella pneumoniae [6]) was over 100 µg/mL. The MIC (Vibrio vulnificus [7]) was 50 µg/mL (≈ 143 µM), the MIC [8] was under 1.56 µg/mL and the MBC (Pseudomonas aeruginosa [9]) was over 100 µg/mL. It also gave an MFC (Candida tropicalis [10]) of over 100 µg/mL, an MIC (Enterococcus faecium [11]) of under 1.56 µg/mL and an MIC (Enterococcus faecalis [12]) of 100 µg/mL (≈ 286 µM). For the same compound, the MBC (Streptococcus agalactiae [13]) was under 1.56 µg/mL, the MIC (Klebsiella oxytoca [14]) was over 100 µg/mL and the MIC (Nakaseomyces glabratus [15]) was over 100 µg/mL. For the same compound, the MBC (Vibrio harveyi [16]) was over 100 µg/mL, the MIC (Edwardsiella tarda [17]) was 3.12 µg/mL (≈ 8.94 µM) and the MBC (Vibrio alginolyticus [18]) was over 100 µg/mL. For the same compound, the MBC [19] was under 1.56 µg/mL, the MBC (Klebsiella oxytoca [20]) was over 100 µg/mL and the MIC (Pseudomonas aeruginosa [21]) was over 100 µg/mL. For the same compound, the MBC (Vibrio vulnificus [22]) was over 100 µg/mL, the MIC (Streptococcus iniae [23]) was 6.25 µg/mL (≈ 17.9 µM) and the MIC (Klebsiella aerogenes [24]) was 50 µg/mL (≈ 143 µM). The MIC (Vibrio alginolyticus [25]) was over 100 µg/mL, the MBC (Vibrio anguillarum [26]) was over 100 µg/mL and the MBC (Aeromonas hydrophila [27]) was over 100 µg/mL. The MBC (Salmonella typhimurium [28]) was over 100 µg/mL, the MBC (Enterococcus faecium [29]) was under 1.56 µg/mL and the MIC (Vibrio harveyi [30]) was over 100 µg/mL. For the same compound, the MIC (Vibrio vulnificus [31]) was 50 µg/mL (≈ 143 µM), the MBC (Vibrio vulnificus [32]) was 50 µg/mL (≈ 143 µM) and the MBC (Vibrio vulnificus [33]) was 50 µg/mL (≈ 143 µM). It also gave an MIC (Candida tropicalis [34]) of over 100 µg/mL, an MIC (Salmonella enterica [35]) of 3.12 µg/mL (≈ 8.94 µM) and an MBC (Vibrio vulnificus [36]) of 50 µg/mL (≈ 143 µM). The MBC (Streptococcus iniae [37]) was 6.25 µg/mL (≈ 17.9 µM), the MIC (Escherichia coli [38]) was 3.12 µg/mL (≈ 8.94 µM) and the MBC (Salmonella enterica [39]) was 6.25 µg/mL (≈ 17.9 µM). It also gave an MFC (Nakaseomyces glabratus [40]) of over 100 µg/mL, an MBC (Escherichia coli [41]) of 6.25 µg/mL (≈ 17.9 µM) and an MBC (Edwardsiella tarda [42]) of 3.12 µg/mL (≈ 8.94 µM). The MIC (Vibrio vulnificus [43]) was 50 µg/mL (≈ 143 µM), the MIC (Salmonella typhimurium [44]) was over 100 µg/mL and the MBC (Enterococcus faecalis [45]) was over 100 µg/mL. It also gave an MIC (Vibrio vulnificus [46]) of over 100 µg/mL.
